Measured values as given in publication PMC5538626, “Structural and functional analysis of the GABARAP interaction motif (GIM)” (EMBO Reports, 2017).
Ends that are not written are not given here.

Target: T1, GABARAP R28K (Homo sapiens, UniProt O95166, R28K)
T1 construct: modified Ub-leader (ubiquitin fusion leader) (N); made in house; host or cells: E. coli NEB T7 Express
Assay: ITC titration of PLEKHM1-LIR peptide into GABARAP R28K mutant
Assay type: binding
Description: The chimeric constructs were expressed as a His‐tag fusion protein in E. coli BL21(DE3) cells. The cells were induced with 0.3 mM IPTG at OD600 0.6 for 16 h at 26°C. The cell pellets were lysed using mechanical sonication in lysis buffer (20 mM Tris–HCl pH 9.0, 100 mM NaCl, 10 mM imidazole, supplemented with 0.1% Triton X‐100). The proteins were purified using Ni‐NTA beads (GE Healthcare) and the His‐tag was cleaved using thrombin (Invitrogen) at room temperature for 16 h. The last step was gel filtration chromatography using a Superdex S200/300 GL column (GE Healthcare). The proteins were concentrated using spin concentrators (Vivaspin). For ITC and NMR studies, the non‐labelled and stable isotopes labelled LC3 and GABARAP proteins were obtained based on the protocols described elsewhere 30, 39. Here, E. coli NEB T7 Express culture transformed with corresponding plasmids were grown till OD600 nm = 1.0 and protein expression was induced with 0.2 mM IPTG. The cultures were incubated at 25°C for 8–12 h before cell harvesting. Isolation and purification procedures were similar to those reported in Ref. 22, 40. Before experiments, all proteins and peptides were equilibrated with a buffer containing 50 mM Na2HPO4, 100 mM NaCl at pH 7.0, and supplied with 5 mM protease inhibitor cocktail.
The protocol for preparation of non‐labelled and ^13C,^15N‐labelled PLEKHM1‐LIR peptide was slightly modified to achieve highest yield of the peptide. The 50 ml M9 culture was inoculated with NEB T7 cell transformed with pET39_Ub63‐PLEKHM1‐LIR plasmid and grown overnight at 37°. The collected cells were resuspended in 2 l of either LB or M9 media contained 1.5 g ^15N‐labelled NH4Cl and 3.0 g of ^13C‐labelled glucose. The cultures were grown at 37° till A(600 nm) = 0.9 and supplied with 1 mM of IPTG to induce Ub63‐PLEKHM1‐LIR overexpression (3 h at 37°). After that cells were harvested by centrifugation, re‐suspended in buffer contained 50 mM Tris–HCl pH = 7.9, 200 mM NaCl, 5% glycerol, 0.1 mg/ml DNase A and 4 mM protease inhibitor cocktail. After cell lysis by French press, debris was removed by centrifugation and clear supernatant was applied onto the column contained Ni‐NTA Sepharose equilibrated with the loading buffer (50 mM Tris–HCl pH = 7.9, 250 mM NaCl, 1% glycerol and 20 mM imidazole). Elution was performed with 400 mM imidazole in the same buffer. An aliquot of pure Ub63‐PLEKHM1‐LIR fractions was further purified by gel filtration on Superdex75 26 × 60 column for control ITC and analytical size exclusion chromatography experiments, remaining fusion protein was processed with the TEV‐protease and PLEKHM1‐LIR peptide was purified to 95% purity by reverse Ni‐NTA chromatography and followed gel filtration on Superdex75 26 × 60 column. Peak maximum of peptide was detected at […] (void volume 115 ml). Pure peptide was concentrated in Amicon concentrators with cut‐off of 3 kDa (> 95% retention).
All titration experiments were performed at 25°C using a VP‐ITC microcalorimeter (Malvern Instruments Ltd, UK). The ITC data were analysed with the ITC‐Origin 7.0 software with a “one‐site” binding model. The peptides at concentrations of 0.4 mM were titrated into 0.020 mM LC3 and GABARAP proteins in 26 steps. The protein and peptide concentrations were calculated from the UV absorption at 280 nm by NanoDrop spectrophotometer (Thermo Fisher Scientific, DE, USA).

T1 sequence (O95166 whole entry R28K, the tested form may be a part): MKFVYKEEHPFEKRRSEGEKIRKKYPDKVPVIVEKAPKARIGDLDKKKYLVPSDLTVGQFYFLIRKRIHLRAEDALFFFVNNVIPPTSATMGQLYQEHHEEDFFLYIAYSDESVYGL

Question: For GAMGPQQEDEWVNVQYPD [PLEKHM1‐LIR WT], which “-T*DS” value (25°C, pH 7.0, GABARAP R28K) is on record?
Answer: +2.00 kcal mol-1

Question: What about the “DG (ΔG)” value (25°C, pH 7.0, GABARAP R28K) of the same sequence?
Answer: -8.55 kcal/mol

Question: And the “DH (ΔH)” value (25°C, pH 7.0, GABARAP R28K)?
Answer: -10.55 ± 0.1 kcal/mol

Question: What about the “DS (ΔS)” value (25°C, pH 7.0, GABARAP R28K) of the same sequence?
Answer: -6.71 cal mol-1 K-1

Question: And the KA (25°C, pH 7.0, GABARAP R28K)?
Answer: 1.9±0.1 *10^6 M-1

Question: What about the N (25°C, pH 7.0, GABARAP R28K) of the same sequence?
Answer: 1.05±0.01

Question: And the “smaller favorable enthalpy vs wild type GABARAP” value (within experimental error)?
Answer: 0.05 kcal/mol
